In one assay the test system is EMG-CoA reductase.
Assay: not given
The note with it: cited from earlier work.
As for `CC[C@H](C)C(=O)O[C@H]1CCC=C2C=C[C@H](C)[C@H](CC[C@@H]3C[C@@H](O)CC(=O)O3)[C@H]21` [compactin], the “inhibition of EMG-CoA reductase” value was “inhibit EMG-CoA reductase”.
Take `CC[C@H](C)C(=O)O[C@H]1C[C@@H](C)C=C2C=C[C@H](C)[C@H](CC[C@@H]3C[C@@H](O)CC(=O)O3)[C@H]21` [lovastatin]: the “inhibition of EMG-CoA reductase” value is on record as “inhibit EMG-CoA reductase”.

The next assay addresses recombinant human farnesyl transferase (Homo sapiens, UniProt P49354+P49356). The assay can be described thus: In vitro inhibition of ras farnesyl transferase. The note with it: read-out: ID50, Inhibition of RAS farnesylation (concentration which gives 50% inhibition of FTase). Format: biochemical. On the procedure: In vitro inhibition of ras farnesyl transferase
The assay was conducted as described in Pompliano, et. al., Biochemistry 31, 3800 (1992) with the exception of utilizing recombinant human farnesyl transferase in place of the partially purified bovine enzyme described therein.
With `CC[C@H](C)[C@@H](/C=C/[C@H](C(=O)N[C@@H](CCO)C(=O)O)C(C)C)NC[C@@H](N)CS` [5(S)-2(R)-amino-3-mercaptopropyl-amino!-6(S)-methyl-2(R)-i-propyl-3,4-E-octenoyl-homoserine], the IC50 was 0.0035 µM.
The same measure, in the same setting: as for `CCCC[C@H](/C=C/[C@@H](NC[C@@H](N)CS)[C@@H](C)CC)C(=O)N[C@@H](CCO)C(=O)O` [5(S)-2(R)-amino-3-mercaptopropyl-amino!-6(S)-methyl-2(R)-n-butyl-3,4-E-octenoyl-homoserine], the figure is 0.0015 µM; as for `CCCC[C@H](/C=C/[C@@H](NC[C@@H](N)CS)[C@@H](C)CC)C(=O)N[C@@H](CCSC)C(=O)O` [5(S)-2(R)-amino-3-mercaptopropyl-amino!-6(S)-methyl-2(R)-n-butyl-3,4-E-octenoyl-methionine], 0.0025 µM; as for `CC[C@H](C)[C@@H](/C=C/[C@@H](Cc1ccccc1)C(=O)N[C@@H](CCSC)C(=O)O)NC[C@@H](N)CS` [5(S)-2(R)-amino-3-mercaptopropylamino!-6(S)-methyl-2(R)-benzyl-3,4-E-octenoyl-methionine], 0.0019 µM.
Still for that read-out and setting: for `CC[C@H](C)[C@@H](/C=C/[C@H](C(=O)N[C@@H](CCSC)C(=O)O)C(C)C)NC[C@@H](N)CS` [5(S)-2(R)-amino-3-mercaptopropylamino!-6(S)-methyl-2(R)-i-propyl-3,4-E-octenoyl-methionine] the value was 0.02 µM; for `CCC[C@H](/C=C/[C@@H](NC[C@@H](N)CS)[C@@H](C)CC)C(=O)N[C@@H](CCO)C(=O)O` [5(S)-2(R)-amino-3-mercaptopropylamino!-6(S)-methyl-2(R)-n-propyl-3,4-E-octenoyl-homoserine], 0.004 µM; for `CC(C)[C@H](/C=C/[C@@H](NC[C@@H](N)CS)C(C)C)C(=O)N[C@@H](CCO)C(=O)O` [5(S)-2(R)-amino-3-mercaptopropylamino!-6-methyl-2(R)-i-propyl-3,4-E-heptenoyl-homoserine], 0.005 µM.

In a further assay the test system is Ras farnesylation in the v-ras cell line. The assay can be described thus: In vivo ras farnesylation assay (v-ras cell line). Conditions: v-ras cells; 4 h pretreatment at 37° C., then 20 h labelling; read-out: IC50, Inhibition of Ras Farnesylation in the v-ras cell line. Type of assay: cell-based. The procedure: In vivo ras farnesylation assay
The cell line used in this assay was the v-ras line, which expressed vital Ha-ras p21. The assay was performed essentially as described in DeClue, J. E. et. al., Cancer Research 51, 712-717, (1991). Cells in 10 cm dishes at 50-75% confluency were treated with the test compound (final concentration of solvent, methanol or dimethyl sulfoxide, was 0.1%). After 4 hours at 37° C., the cells were labelled in 3 ml methionine-free DMEM supplemeted with 10% regular DMEM, 2% fetal bovine serum and 400 μCi ^35 S!methionine (1000 Ci/mmol). After an additional 20 hours, the cells were lysed in 1 ml lysis buffer (1% NP40/20 mMHEPES, pH 7.5/5 mM MgCl2 /1 mM DTT/10 μg/ml aprotinen/2 μg/ml leupeptin/2 μg/ml antipain/0.5 mM PMSF) and the lysates cleared by centrifugation at 100,000×g for 45 min. Aliqouts of lysates containing equal numbers of acid-precipitable counts were bought to 1 ml with IP buffer (lysis buffer lacking DTT) and immunoprecipitated with the ras-specific monoclonal antibody Y13-259 (Furth, M. E. et. al., J. Virol. 43, 294-304, (1982)). Following a 2 hour antibody incubation at 4° C., 200 μl of a 25% suspension of protein A-Sepharose coated with rabbit anti rat IgG was added for 45 min. The immunoprecipitates were washed four times with IP was buffer ([…] HEPES, pH 7.5/1 mM EDTA/ 1% Triton X-100.0.5% deoxycholate/0.1%/SDS/0.1M NaCl) boiled in SDS-PAGE sample buffer and loaded on 13% acrylamide gels. When the dye front reached the bottom, the gel was fixed, soaked in Enlightening, dried and autoradiographed. The intensities of the bands corresponding to farnesylated and nonfarnesylated ras proteins were compared to determine the percent inhibition of farnesyl transfer to protein.
Take `CC[C@H](C)[C@@H](/C=C/[C@@H](Cc1ccccc1)C(=O)N[C@H]1CCOC1=O)NC[C@@H](N)CS` [5(S)-2(R)-amino-3-mercaptopropylamino!-6(S)-methyl-2(R)-benzyl-3,4-E-octenoyl-homoserine lactone]: the IC50 was in the range of 5 to 10 µM.
For the compound `CC[C@H](C)[C@@H](/C=C/[C@@H](Cc1ccccc1)C(=O)N[C@@H](CCSC)C(=O)OC)NC[C@@H](N)CS` [5(S)-2(R)-amino-3-mercaptopropylamino!-6(S)-methyl-2(R)-benzyl-3,4-E-octenoyl-methionine, methyl ester], the IC50 stood at 1 µM.
Consider `CC[C@H](C)[C@@H](/C=C/[C@H](C(=O)N[C@H]1CCOC1=O)C(C)C)NC[C@@H](N)CS` [5(S)-2(R)-amino-3-mercaptopropylamino!-6(S)-methyl-2(R)-i-propyl-3,4-E-octenoyl-homoserine lactone], for which the IC50 is 1 to 2.5 µM.
For `CC[C@H](C)[C@@H](/C=C/[C@H](C(=O)N[C@@H](CCSC)C(=O)OC)C(C)C)NC[C@@H](N)CS` [5(S)-2(R)-amino-3-mercaptopropylamino!-6(S)-methyl-2(R)-i-propyl-3,4-E-octenoyl-methionine, methyl ester], the IC50 was found to be 0.1 µM.
Regarding `CCCC[C@H](/C=C/[C@@H](NC[C@@H](N)CS)[C@@H](C)CC)C(=O)N[C@@H](CCSC)C(=O)OC` [5(S)-2(R)-amino-3-mercaptopropylamino!-6(S)-methyl-2(R)-n-butyl-3,4-E-octenoyl-methionine, methyl ester], the IC50 amounted to 1 µM.
On the same count and under the same terms, as for `CCC[C@H](/C=C/[C@@H](NC[C@@H](N)CS)[C@@H](C)CC)C(=O)N[C@H]1CCOC1=O` [5(S)-2(R)-amino-3-mercaptopropylamino!-6(S)-methyl-2(R)-n-propyl-3,4-E-octenoyl-homoserine lactone], the figure is 5 µM; as for `CC(C)[C@H](/C=C/[C@@H](NC[C@@H](N)CS)C(C)C)C(=O)N[C@H]1CCOC1=O` [5(S)-2(R)-amino-3-mercaptopropylamino!-6-methyl-2(R)-i-propyl-3,4-E-heptenoyl-homoserine lactone], 1 µM.
